Experimental data from patent publication US20240261274A1, “TREATMENT OF MYC-DRIVEN CANCERS WITH GSPT1 DEGRADERS” (MONTE ROSA THERAPEUTICS, INC., priority 2021, published 2024).

Legend:
Assay type in all cases: cell-based
Conditions in all cases: MM1 S cells, 0.3, 3 and 30 μM, 6 hours
IKZF1 = target: T1, IKZF1 (Homo sapiens, UniProt Q13422+Q96SW2); assay: Selectivity western blot assay in MM1 S cells, IKZF1; design: key: A represents no degradation observed at 30 μM; B represents trace degradation at 30 μM (below 20%); C represents weak degradation at 30 μM (below 50%); D represents degradation at 30 μM (>90%); E represents degradation at 3 μM (>90%); F represents degradation at 0.3 μM (>90%)
T1 construct: endogenous in cells; host or cells: MM1 S (ATCC CRL-2974)
Description: (§1) MM1 S cells were purchased from ATCC (cat. Number CRL-2974), sub-cultured in 90% RPMI 1640 with 10% FBS, supplemented with 1×P/S and incubated at 37° C., 5% CO2. Compounds were stored as 10 mM DMSO stock. For the assay, MM1 S cells (3 million cells/well) were plated in 6-well plates and incubated over night. Cells were treated with respective compounds using a serial dilution: 0.3 μM, 3 μM and 30 μM as well as a vehicle only (DMSO) control for 6 hours. Media with suspension cells was subsequently transferred to 15 mL conical tubes, wells rinsed twice with ice-cold PBS and merged with cell suspension in respective 15 mL conical tube. Cells were spinned down, supernatant aspirated, pellets resuspended in ice-cold PBS and transferred to microtubes. Cells were spinned down, supernatant aspirated and pellets resuspended in 120 μL RIPA lysis buffer supplemented with protease and phosphatase inhibitors. Cell lysates were incubated on ice for 20 minutes followed by centrifugation at >20,000×g for 5 min. Supernatants were transferred to fresh microtubes and stored at −80° C. Total protein concentration was determined using a BCA assay with a BSA standard curve and concentration of all samples was adjusted to 1 mg/mL. 25 μL 4×LDS sample buffer supplemented with 100 mM DTT was added to 75 μL sample. Samples were centrifuged (8,000×g, 1 min) and incubated at 95° C. for 5 min followed by another centrifugation step (8,000×g, 1 min). 20 μL of each sample was loaded on a 4-12% gel alongside a protein molecular weight marker. Gels were run in the presence of MOPS buffer at 80 Volts for 30 min, followed by 120 Volts for 1.5 h and proteins subsequently transferred onto nitrocellulose membranes at 20 Volts for 7 min using an iBlot2 Gel Transfer Device. Membranes were then cut horizontally into two pieces, covering 80-50 kDa and 50-25 kDa. Blocking the membranes was performed by gently shaking in 5% (w/v) skim milk in TSB-T for 1 hr at room temperature. All primary antibodies were used at a 1/1000 in 5% (w/v) BSA dissolved in TBST and incubated with membranes over night at 4° C. After three washes with 1×TBST for 5 min, HRP-coupled secondary antibodies diluted in 5% (w/v) BSA/TBST (Goat Anti-Rb IgG, dil. 1/10,000; Goat Anti-Mouse IgG, dil. 1/5000) were added for 1 hr at room temperature. After three washes with 1×TBST (5 minutes each), membranes were incubated with ECL reagent for 1 min at room temperature. Chemiluminescence signals were then detected using a LAS-4000 system with default settings and signals quantified using Image Studio Lite software (version 5.2). Membrane parts previously incubated with antibody against CK1 alpha were stripped off antibodies by incubating with stripping buffer for 30 minutes followed by three washed with TBST (5 min each), blocking with 5% (w/v) skim milk for 1 hr, and incubation with primary antibody against uGAPDH overnight at 4° C. Subsequent washes, incubation with secondary antibody and signal acquisition were performed as described above.

CK1alpha = target: T2, CK1alpha (Homo sapiens, UniProt P48729+Q96SW2); assay: Selectivity western blot assay in MM1 S cells, CK1alpha; design: key: A represents no degradation observed at 30 μM; B represents trace degradation at 30 μM (below 20%); C represents weak degradation at 30 μM (below 50%); D represents degradation at 30 μM (>90%); E represents degradation at 3 μM (>90%); F represents degradation at 0.3 μM (>90%)
T2 construct: endogenous in cells; host or cells: MM1 S (ATCC CRL-2974)
Description: as §1

GSPT1 = GSPT1 (Homo sapiens, UniProt P15170+Q96SW2); assay: Selectivity western blot assay in MM1 S cells, GSPT1; design: endogenous in cells; host or cells: MM1 S (ATCC CRL-2974)
Description: as §1

ZFP91 = target: T3, ZFP91 (Homo sapiens, UniProt Q96JP5+Q96SW2); assay: Selectivity western blot assay in MM1 S cells, ZFP91; design: key: A represents no degradation observed at 30 μM; B represents trace degradation at 30 μM (below 20%); C represents weak degradation at 30 μM (below 50%); D represents degradation at 30 μM (>90%); E represents degradation at 3 μM (>90%); F represents degradation at 0.3 μM (>90%)
T3 construct: endogenous in cells; host or cells: MM1 S (ATCC CRL-2974)
Description: as §1

IKZF3 = target: T4, IKZF3 (Homo sapiens, UniProt Q96SW2+Q9UKT9); assay: Selectivity western blot assay in MM1 S cells, IKZF3
T4 construct: endogenous in cells; host or cells: MM1 S (ATCC CRL-2974)
Description: as §1

T4 sequence (Q9UKT9 whole entry): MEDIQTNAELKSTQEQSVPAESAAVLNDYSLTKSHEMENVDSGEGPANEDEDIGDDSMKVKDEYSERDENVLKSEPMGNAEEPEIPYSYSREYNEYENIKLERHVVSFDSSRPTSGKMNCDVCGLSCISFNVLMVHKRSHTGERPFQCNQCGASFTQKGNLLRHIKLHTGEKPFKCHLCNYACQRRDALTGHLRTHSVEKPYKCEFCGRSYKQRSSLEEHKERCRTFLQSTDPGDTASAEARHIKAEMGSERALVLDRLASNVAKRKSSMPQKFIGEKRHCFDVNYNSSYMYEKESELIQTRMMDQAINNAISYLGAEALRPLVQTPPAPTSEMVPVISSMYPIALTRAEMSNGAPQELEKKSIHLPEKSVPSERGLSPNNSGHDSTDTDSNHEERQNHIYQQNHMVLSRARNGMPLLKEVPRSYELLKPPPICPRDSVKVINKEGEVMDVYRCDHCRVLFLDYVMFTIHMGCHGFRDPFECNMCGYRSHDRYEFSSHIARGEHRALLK
T4 sequence (Q96SW2 whole entry): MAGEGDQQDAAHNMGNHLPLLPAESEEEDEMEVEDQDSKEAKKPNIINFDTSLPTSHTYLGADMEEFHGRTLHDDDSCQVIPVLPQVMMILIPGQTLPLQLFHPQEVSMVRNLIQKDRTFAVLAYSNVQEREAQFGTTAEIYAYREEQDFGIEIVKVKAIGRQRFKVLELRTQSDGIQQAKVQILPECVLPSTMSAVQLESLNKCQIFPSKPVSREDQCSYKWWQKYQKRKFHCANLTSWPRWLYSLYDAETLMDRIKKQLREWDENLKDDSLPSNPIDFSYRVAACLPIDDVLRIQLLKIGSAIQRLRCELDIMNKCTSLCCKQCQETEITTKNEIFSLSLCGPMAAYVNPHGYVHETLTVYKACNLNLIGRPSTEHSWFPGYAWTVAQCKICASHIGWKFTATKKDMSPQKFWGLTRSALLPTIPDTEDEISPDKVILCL
T4 sequence (Q16531 whole entry partner): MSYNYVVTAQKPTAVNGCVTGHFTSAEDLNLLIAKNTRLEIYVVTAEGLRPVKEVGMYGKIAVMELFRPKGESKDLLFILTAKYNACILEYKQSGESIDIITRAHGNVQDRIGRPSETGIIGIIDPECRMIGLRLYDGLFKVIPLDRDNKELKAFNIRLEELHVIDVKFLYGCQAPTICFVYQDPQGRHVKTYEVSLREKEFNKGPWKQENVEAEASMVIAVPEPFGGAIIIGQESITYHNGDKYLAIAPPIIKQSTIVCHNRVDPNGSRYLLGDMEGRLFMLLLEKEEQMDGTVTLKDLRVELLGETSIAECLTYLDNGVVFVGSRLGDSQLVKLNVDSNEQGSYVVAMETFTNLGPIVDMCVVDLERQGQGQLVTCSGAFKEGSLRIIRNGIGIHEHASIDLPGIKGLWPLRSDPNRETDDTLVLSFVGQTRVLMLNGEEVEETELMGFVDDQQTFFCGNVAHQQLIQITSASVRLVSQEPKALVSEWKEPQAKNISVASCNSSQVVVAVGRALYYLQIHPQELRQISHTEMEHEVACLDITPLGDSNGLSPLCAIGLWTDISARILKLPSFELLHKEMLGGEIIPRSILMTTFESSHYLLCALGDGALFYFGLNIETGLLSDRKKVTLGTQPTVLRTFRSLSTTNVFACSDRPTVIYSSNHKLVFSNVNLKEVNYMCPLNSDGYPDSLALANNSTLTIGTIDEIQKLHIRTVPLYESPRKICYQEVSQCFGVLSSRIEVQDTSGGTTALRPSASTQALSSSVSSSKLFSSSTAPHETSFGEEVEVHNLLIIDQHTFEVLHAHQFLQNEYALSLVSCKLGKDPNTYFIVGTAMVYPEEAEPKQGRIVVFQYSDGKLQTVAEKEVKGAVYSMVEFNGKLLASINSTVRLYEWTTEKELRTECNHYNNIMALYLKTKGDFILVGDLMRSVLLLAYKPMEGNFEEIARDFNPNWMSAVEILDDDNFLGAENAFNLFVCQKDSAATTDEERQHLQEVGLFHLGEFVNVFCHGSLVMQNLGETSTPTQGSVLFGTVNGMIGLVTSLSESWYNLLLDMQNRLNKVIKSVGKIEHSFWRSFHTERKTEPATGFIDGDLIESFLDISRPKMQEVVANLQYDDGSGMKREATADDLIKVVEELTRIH
T2 sequence (P48729 whole entry): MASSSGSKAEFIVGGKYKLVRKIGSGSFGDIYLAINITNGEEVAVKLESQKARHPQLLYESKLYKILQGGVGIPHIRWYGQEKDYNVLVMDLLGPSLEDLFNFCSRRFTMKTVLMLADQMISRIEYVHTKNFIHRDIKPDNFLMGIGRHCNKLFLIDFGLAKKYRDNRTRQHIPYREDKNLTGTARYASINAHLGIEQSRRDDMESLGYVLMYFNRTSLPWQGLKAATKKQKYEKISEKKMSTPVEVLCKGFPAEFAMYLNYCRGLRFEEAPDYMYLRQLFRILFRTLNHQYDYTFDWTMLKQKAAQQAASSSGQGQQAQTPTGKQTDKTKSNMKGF
T2 sequence (Q96SW2 whole entry): as the sequence (Q96SW2 whole entry) above
T2 sequence (Q16531 whole entry partner): as the sequence (Q16531 whole entry partner) above
Chain of GSPT1 (P15170 whole entry): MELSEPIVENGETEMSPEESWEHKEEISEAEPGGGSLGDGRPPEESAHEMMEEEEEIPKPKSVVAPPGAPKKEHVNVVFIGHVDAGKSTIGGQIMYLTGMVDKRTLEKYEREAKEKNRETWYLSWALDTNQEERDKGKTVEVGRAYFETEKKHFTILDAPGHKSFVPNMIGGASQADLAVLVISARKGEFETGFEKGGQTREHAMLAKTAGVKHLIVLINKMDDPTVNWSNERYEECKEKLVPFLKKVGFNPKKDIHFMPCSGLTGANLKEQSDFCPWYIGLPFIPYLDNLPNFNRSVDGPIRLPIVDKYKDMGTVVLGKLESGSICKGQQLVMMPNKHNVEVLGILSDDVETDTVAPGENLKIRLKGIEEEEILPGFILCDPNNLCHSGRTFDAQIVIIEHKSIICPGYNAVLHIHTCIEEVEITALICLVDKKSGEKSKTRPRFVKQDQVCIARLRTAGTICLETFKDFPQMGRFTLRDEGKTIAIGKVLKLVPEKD
Chain of GSPT1 (Q96SW2 whole entry): as the sequence (Q96SW2 whole entry) above
Chain of GSPT1 (Q16531 whole entry partner): as the sequence (Q16531 whole entry partner) above
T1 sequence (Q13422 whole entry): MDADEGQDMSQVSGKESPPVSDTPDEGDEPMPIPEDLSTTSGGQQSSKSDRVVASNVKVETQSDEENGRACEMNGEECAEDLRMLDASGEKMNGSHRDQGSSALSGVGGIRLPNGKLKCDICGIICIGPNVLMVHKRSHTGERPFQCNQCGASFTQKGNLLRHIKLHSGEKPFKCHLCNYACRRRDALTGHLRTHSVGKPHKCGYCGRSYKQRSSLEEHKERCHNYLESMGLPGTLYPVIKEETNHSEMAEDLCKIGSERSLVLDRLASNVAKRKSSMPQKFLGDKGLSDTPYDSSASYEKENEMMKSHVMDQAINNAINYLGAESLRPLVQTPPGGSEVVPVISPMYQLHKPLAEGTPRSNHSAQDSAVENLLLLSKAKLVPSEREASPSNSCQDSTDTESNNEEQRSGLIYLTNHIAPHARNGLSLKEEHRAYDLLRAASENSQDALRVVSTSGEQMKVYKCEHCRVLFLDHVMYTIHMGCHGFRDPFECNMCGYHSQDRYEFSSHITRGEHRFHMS
T1 sequence (Q96SW2 whole entry): as the sequence (Q96SW2 whole entry) above
T1 sequence (Q16531 whole entry partner): as the sequence (Q16531 whole entry partner) above
T3 sequence (Q96JP5 whole entry): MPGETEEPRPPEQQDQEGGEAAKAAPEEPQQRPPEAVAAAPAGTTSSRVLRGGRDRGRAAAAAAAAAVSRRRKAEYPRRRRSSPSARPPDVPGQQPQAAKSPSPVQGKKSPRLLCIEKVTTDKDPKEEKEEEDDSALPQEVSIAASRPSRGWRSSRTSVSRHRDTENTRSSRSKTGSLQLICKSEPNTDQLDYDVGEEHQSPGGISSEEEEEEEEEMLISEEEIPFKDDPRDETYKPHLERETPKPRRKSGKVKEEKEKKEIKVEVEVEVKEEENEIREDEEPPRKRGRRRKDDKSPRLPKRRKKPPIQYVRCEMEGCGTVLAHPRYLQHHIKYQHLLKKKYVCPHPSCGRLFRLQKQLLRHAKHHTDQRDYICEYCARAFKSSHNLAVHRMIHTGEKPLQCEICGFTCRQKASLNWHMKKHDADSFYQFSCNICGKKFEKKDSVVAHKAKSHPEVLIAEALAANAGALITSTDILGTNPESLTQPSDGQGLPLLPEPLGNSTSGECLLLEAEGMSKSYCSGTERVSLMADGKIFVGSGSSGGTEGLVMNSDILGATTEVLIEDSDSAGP
T3 sequence (Q96SW2 whole entry): as the sequence (Q96SW2 whole entry) above
T3 sequence (Q16531 whole entry partner): as the sequence (Q16531 whole entry partner) above

Structure (SMILES)	IKZF1 degradation (IKZF1)	CK1alpha degradation (CK1alpha)	GSPT1 degradation (GSPT1)	ZFP91 degradation (ZFP91)	IKZF3 degradation (IKZF3)
Cc1ccc(NC(=O)NCc2ccc3c(c2)C(=O)N(C2CCC(=O)NC2=O)C3)cc1Cl (centres unmarked) [Compound 8]	A	A	F (F represents degradation at 0.3 μM (>90%))	B (B represents trace degradation at 30 μM (below 20%))	B (B represents trace degradation at 30 μM (below 20%))
Cc1c(Cl)cc(NC(=O)NCc2ccc3c(c2)C(=O)N(C2CCC(=O)NC2=O)C3)cc1CN1C2CCC1COC2 (centres unmarked) [Compound 138]	C (C represents weak degradation at 30 μM (below 50%))	A	F (F represents degradation at 0.3 μM (>90%))	A	B (B represents trace degradation at 30 μM (below 20%))
Cc1ccc(NC(=O)OCc2ccc3c(c2)C(=O)N(C2CCC(=O)NC2=O)C3)cc1Cl (centres unmarked) [Compound 210]	A	B (B represents trace degradation at 30 μM (below 20%))	D (D represents degradation at 30 μM (>90%))		B (B represents trace degradation at 30 μM (below 20%))
